For one compound, Kd results are on record in US10010560B2, “Small molecule HSP70 inhibitors” (THE TRUSTEES OF THE UNIVERSITY OF PENNSYLVANIA, priority 2014, dated 2018).

Assay in all cases: ITC, mutated full-length ADP-HSP70
Common to all, as to type: binding
In general terms: In ITC the heat of successive injections is recorded.

Assay [1] deals with T1, ADP-HSP70 D506A (Homo sapiens, UniProt P0DMV8, D506A/E110D).
T1 construct: The full-length HSP70 and DnaK mutants were constructed by PCR-based site-directed mutagenesis; His6 (N); made in house; host or cells: E. coli BL21 Star (DE3)
As to conditions: ADP-HSP70 mutant D506A. The source says: (§1) The human stress-inducible HSP70 (residues 1-641 or 386-616 of SEQ ID NO: 2) and E. coli DnaK (residues 1-638, 389-607, or 393-507 of SEQ ID NO: 4) were cloned into the pET25 vector (EMD Millipore Chemicals, Inc., Billerica, Mass., USA) between the NdeI and XhoI restriction sites. The full-length HSP70 and DnaK mutants were constructed by PCR-based site-directed mutagenesis using the QuikChange™ Site-Directed Mutagenesis Kit (Agilent Technologies, Inc., Santa Clara, Calif., USA). All plasmid inserts were verified by DNA sequencing. All HSP70 and DnaK variants were produced with a N-terminal His6-tag in the E. coli BL21 Star (DE3) strain (Invitrogen catalog number C6010-03). The resulting strains were grown at 37° C. in LB medium containing 50 μg/mL of carbenicillin (Sigma-Aldrich Co., St. Louis, Mo., USA). At an OD600 about 0.3 to about 0.5, protein expression was induced with 0.5 mM isopropyl-β-D-thiogalactopyranoside (IPTG), and cells were subsequently grown at 25° C. for about 16 h. Cells were collected by centrifugation and resuspended in the Bugbuster® Master Mix (EMD Millipore Chemicals catalog number 71456-4), supplemented with protease inhibitors, 1 mM diethiothreitol (DTT) and 20 mM imidazole. The His6-tagged fusion proteins were isolated on Ni^2+-chelating resins (Ni-NTA Superflow, Qiagen catalog number 30410) by standard procedures. When necessary, size-exclusion chromatography on a Superdex® 200 or a Superose® 6 10/300 GL columns (GE Healthcare) analytical column pre-equilibrated with 1× Dulbecco's Phosphate Buffered Saline (DPBS—Invitrogen 14190-136), 1 mM Tris-HCl (pH 7.4) or 10 mM Tris-HCl (pH 7) was used as the final purification step. The purified DnaK proteins were dialyzed thoroughly against 1× DPBS with 5 mM DTT at 4° C., for crystallization trials involving the small molecule inhibitor PET-16. For isothermal titration calorimetry studies, all HSP70 and DnaK variants were dialyzed extensively against the buffers as noted below under the section entitled “Isothermal Titration calorimetry Studies”. The dialyzed proteins were subsequently microcentrifugated at 15,000×g for 5 min at 4° C. and aliquots of the soluble proteins were stored at −80° C.
(§2) All ITC experiments were performed using a MicroCal VP-ITC isothermal titration calorimeter (MicroCal). Both full-length HSP70 and DnaK proteins and DnaK (aa 393-507) proteins were prepared in 1 mM Tris-HCl (pH 7.4) buffer containing 3% dimethylsulfoxide (DMSO). The HSP70 (aa 386-616) protein was prepared in buffer containing 3% DMSO and 10 mM Tris-HCl, pH 7. The syringe was loaded with purified protein in either 1 mM Tris-HCl (pH 7.4) buffer containing 3% DMSO or 10 mM Tris-HCl (pH 7) buffer containing 3% DMSO. The sample cell of the calorimeter was loaded with PES, PET-16 or NRLLLTG (SEQ ID NO: 7) prepared in the same buffer. All solutions were degassed for 5 min.
(§3) The titrations involving the full-length purified proteins were performed at 25° C. with injection volumes of 12 μL and a spacing of 300 s. The titrations involving the purified HSP70 (aa 386-616) and DnaK (aa 393-507) were performed at 42° C. with injection volumes of 12 μL and a spacing of 300 s. Heat from the pre-injection was not used during fitting. The data were fit using a one-site binding model available in the Origin® ITC data analysis software (MicroCal Origin® V5.0, MicroCal Software, Northampton, Mass.). Error values obtained from the MicroCal Origin® V5.0 software were averaged and reported.
(§4) The information from crystal structure analysis pointed to particular amino acid residues as potential contact sites for interaction with PET-16. Single point mutants were thereby introduced in the context of a full-length DnaK protein, as well as at the corresponding residues within HSP70; these mutant proteins were analyzed by ITC for ability to bind to PET-16. The DnaK mutations included residues L392D, P396L, L399R, G482D, A503D and […]; those in HSP70 were L394D, P398L, L401R, G484D, N505D and D506A. […]

The target in assay [2] is T2, ADP-HSP70 G484D (Homo sapiens, UniProt P0DMV8, E110D/G484D).
T2 construct: The full-length HSP70 and DnaK mutants were constructed by PCR-based site-directed mutagenesis; His6 (N); made in house; host or cells: E. coli BL21 Star (DE3)
The settings on record: ADP-HSP70 mutant G484D.
From the text: as §1, §2, §3, §4

Assay [3] deals with T3, ADP-HSP70 L394D (Homo sapiens, UniProt P0DMV8, E110D/L394D).
T3 construct: The full-length HSP70 and DnaK mutants were constructed by PCR-based site-directed mutagenesis; His6 (N); made in house; host or cells: E. coli BL21 Star (DE3)
As to conditions: ADP-HSP70 mutant L394D.
From the text: as §1, §2, §3, §4

In assay [4] the target is T4, ADP-HSP70 L401R (Homo sapiens, UniProt P0DMV8, E110D/L401R).
T4 construct: The full-length HSP70 and DnaK mutants were constructed by PCR-based site-directed mutagenesis; His6 (N); made in house; host or cells: E. coli BL21 Star (DE3)
The settings on record: ADP-HSP70 mutant L401R.
From the text: as §1, §2, §3, §4

The target in assay [5] is T5, ADP-HSP70 P398L (Homo sapiens, UniProt P0DMV8, E110D/P398L).
T5 construct: The full-length HSP70 and DnaK mutants were constructed by PCR-based site-directed mutagenesis; His6 (N); made in house; host or cells: E. coli BL21 Star (DE3)
As to conditions: ADP-HSP70 mutant P398L.
From the text: as §1, §2, §3, §4

T1 sequence (P0DMV8 whole entry E110D/D506A): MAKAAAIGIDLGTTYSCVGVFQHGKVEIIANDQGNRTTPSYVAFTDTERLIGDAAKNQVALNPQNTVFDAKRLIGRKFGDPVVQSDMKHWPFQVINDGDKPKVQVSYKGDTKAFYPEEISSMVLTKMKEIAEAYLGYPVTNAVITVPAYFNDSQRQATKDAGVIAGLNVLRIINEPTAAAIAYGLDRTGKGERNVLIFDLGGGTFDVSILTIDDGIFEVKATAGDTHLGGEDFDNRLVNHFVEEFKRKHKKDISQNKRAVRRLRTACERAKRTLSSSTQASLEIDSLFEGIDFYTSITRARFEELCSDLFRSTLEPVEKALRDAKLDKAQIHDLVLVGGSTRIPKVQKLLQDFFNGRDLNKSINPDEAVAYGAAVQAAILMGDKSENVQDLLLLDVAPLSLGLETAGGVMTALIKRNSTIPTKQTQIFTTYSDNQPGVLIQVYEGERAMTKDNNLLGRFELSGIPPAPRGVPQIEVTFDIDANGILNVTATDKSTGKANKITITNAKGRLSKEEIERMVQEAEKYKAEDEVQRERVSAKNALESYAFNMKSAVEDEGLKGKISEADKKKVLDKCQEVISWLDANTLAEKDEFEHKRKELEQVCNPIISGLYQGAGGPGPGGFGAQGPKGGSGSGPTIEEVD
T2 sequence (P0DMV8 whole entry E110D/G484D): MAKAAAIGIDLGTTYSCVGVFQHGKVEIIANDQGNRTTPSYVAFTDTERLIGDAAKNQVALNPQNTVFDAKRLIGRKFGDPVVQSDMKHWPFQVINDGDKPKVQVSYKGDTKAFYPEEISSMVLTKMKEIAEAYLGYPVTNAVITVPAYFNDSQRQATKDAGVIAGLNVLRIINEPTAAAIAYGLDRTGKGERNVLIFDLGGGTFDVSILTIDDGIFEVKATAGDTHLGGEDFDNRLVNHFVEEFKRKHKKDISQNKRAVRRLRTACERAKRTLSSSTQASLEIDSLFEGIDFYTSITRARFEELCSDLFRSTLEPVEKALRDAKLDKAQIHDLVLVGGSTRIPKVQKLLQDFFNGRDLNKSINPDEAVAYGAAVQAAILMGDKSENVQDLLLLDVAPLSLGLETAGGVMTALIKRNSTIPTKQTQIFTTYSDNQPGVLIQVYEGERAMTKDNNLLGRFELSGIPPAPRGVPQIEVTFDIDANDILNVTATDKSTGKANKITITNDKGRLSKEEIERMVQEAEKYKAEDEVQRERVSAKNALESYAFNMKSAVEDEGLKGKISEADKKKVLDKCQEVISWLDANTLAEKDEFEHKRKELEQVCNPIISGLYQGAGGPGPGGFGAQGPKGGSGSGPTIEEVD
T3 sequence (P0DMV8 whole entry E110D/L394D): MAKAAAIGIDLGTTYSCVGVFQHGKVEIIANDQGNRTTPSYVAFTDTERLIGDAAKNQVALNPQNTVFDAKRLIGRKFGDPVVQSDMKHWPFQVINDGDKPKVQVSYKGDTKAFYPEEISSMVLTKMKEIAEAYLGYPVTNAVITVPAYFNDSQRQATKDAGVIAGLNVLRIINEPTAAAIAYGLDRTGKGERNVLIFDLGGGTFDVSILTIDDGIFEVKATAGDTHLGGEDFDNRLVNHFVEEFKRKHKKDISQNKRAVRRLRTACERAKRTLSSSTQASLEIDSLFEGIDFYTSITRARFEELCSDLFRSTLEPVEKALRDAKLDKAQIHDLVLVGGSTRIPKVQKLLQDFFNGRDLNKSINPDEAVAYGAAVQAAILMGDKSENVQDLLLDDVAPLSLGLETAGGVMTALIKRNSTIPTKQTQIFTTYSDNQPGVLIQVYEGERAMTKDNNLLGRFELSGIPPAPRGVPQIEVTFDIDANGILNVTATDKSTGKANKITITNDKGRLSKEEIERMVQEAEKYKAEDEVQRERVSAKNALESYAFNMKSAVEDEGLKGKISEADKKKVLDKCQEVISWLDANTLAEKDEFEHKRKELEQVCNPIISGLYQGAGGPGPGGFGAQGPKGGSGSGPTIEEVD
T5 sequence (P0DMV8 whole entry E110D/P398L): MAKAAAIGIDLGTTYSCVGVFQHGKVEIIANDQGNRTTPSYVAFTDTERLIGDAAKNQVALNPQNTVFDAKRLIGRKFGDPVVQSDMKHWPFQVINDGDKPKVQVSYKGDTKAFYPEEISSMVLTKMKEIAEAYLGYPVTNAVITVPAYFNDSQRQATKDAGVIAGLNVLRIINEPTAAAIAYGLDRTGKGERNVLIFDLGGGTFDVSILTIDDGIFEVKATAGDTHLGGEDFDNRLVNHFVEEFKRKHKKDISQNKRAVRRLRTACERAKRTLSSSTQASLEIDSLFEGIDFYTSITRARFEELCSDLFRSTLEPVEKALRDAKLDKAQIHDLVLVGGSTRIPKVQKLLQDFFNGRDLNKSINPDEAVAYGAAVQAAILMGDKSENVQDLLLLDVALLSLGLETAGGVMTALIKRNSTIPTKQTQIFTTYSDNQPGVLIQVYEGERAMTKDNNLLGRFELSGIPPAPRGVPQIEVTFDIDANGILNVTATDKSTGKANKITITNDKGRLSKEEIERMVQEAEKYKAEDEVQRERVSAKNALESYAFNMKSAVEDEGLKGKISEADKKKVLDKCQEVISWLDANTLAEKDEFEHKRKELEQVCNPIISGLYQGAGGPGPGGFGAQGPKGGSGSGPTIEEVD
T4 sequence (P0DMV8 whole entry E110D/L401R): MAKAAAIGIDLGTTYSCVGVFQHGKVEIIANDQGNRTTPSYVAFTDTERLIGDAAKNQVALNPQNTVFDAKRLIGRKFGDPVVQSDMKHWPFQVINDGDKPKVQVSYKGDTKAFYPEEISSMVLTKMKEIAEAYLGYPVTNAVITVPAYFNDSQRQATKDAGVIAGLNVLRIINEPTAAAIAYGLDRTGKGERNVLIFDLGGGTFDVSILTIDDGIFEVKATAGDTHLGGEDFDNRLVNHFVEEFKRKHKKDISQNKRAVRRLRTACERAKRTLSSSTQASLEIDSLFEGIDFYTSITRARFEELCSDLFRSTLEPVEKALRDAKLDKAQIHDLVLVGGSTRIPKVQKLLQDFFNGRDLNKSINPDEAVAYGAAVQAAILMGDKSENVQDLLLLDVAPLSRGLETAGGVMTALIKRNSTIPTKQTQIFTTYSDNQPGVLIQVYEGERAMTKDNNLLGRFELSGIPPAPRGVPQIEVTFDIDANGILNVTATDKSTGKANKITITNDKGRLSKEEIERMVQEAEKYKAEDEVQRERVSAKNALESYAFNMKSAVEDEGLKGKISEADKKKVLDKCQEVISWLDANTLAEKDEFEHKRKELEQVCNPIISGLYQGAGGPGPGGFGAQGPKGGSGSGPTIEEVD

Usually Kd stands for the equilibrium constant for the complex coming apart. A higher Kd goes with weaker binding. For the compound `C(#C[P+](c1ccccc1)(c1ccccc1)c1ccccc1)c1ccccc1.[Br-]` [PET-16, triphenyl(phenylethynyl)phosphonium bromide], the equilibrium dissociation constant (Kd) was determined as 112 ± 3.8 µM in assay [1]; 98.8 ± 5.1 µM in assay [2]; 30.8 ± 0.6 µM in assay [3]; 43.2 ± 9.9 µM in assay [4]; 23.4 ± 1.2 µM in assay [5].
